From patent publication US8969327B2, “Substituted androst-4-ene diones” (priority 2010, dated 2015) come the findings set out here.

This assay concerns the target T1, Purified P450arom (aromatase) reconstituted with P450-reductase (CPR) (Homo sapiens, UniProt P11511).
T1 sequence (P11511 1-503): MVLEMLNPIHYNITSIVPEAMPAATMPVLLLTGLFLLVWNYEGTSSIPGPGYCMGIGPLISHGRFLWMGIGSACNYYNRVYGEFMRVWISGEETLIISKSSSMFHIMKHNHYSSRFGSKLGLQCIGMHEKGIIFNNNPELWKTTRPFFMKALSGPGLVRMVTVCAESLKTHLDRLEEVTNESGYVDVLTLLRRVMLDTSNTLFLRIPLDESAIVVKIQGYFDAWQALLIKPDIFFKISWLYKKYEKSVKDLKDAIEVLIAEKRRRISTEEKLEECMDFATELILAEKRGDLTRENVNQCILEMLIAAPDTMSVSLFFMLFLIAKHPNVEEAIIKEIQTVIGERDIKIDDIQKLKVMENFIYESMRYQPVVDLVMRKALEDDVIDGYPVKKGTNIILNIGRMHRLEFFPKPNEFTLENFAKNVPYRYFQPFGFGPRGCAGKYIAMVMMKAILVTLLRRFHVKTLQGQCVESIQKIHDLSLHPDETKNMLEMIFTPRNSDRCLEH
Put plainly: Measurement of aromatase activity by 3H-water method. Conditions: substrate 0.24 μM [1β-3H, 4-14C] androstenedione, 37° C., 20 minutes. The assay is classed as biochemical.

Where [1] appears, read: compound concentration 1 (μmol).
Setting [2] is: compound concentration 10 (μmol).
[3] abbreviates: compound concentration 0.1 (μmol).

A word on the % Inhibition: it is the change of the read-out against control, counted positive when it falls. Turning to `C[C@]12C=CC(=O)C=C1C=C[C@@H]1[C@@H]2CC[C@]2(C)C(=O)CC[C@@H]12` [HDDG-003], the “% Inhibition” value under setting [1] stood at 67% and the “% Inhibition” value under setting [2] worked out at 80%.
Regarding `C[C@]12C=CC(=O)C(=[N+]=[N-])C1=CC[C@@H]1[C@@H]2CC[C@]2(C)C(=O)CC[C@@H]12` [HDDG-004], the “% Inhibition” value is 25% under setting [1] and 40% under setting [2].
With `CCOC1=C(O)C=C[C@@]2(C)C1=CC[C@@H]1[C@@H]2CC[C@]2(C)C(=O)CC[C@@H]12` [HDDG-007], the “% Inhibition” value by setting is: under setting [1], 12%; under setting [2], 0%.
Take `CO[C@@H]1C[C@@H]2[C@H](CC[C@]3(C)C(=O)CC[C@@H]23)[C@@]2(C)C=CC(=O)C=C12` [HDDG-009]: the “% Inhibition” value under setting [2] came out at 55%.
Still for that read-out and setting: the value for `C[C@]12C=CC(=O)C=C1[C@H](O)C[C@@H]1[C@@H]2CC[C@]2(C)C(=O)CC[C@@H]12` [HDDG-010] was 55%; that for `COC1=C(O)C=C[C@@]2(C)C1=CC[C@@H]1[C@@H]2CC[C@]2(C)C(=O)CC[C@@H]12` [HDDG-011] was 37%; that for `CO[C@H]1C[C@@H]2[C@H](CC[C@]3(C)C(=O)CC[C@@H]23)[C@@]2(C)C=CC(=O)C=C12` [HDDG-014] was 42%.
The same measure, in the same setting: to `CC(C)(C)O[C@@H]1C[C@@H]2[C@H](CC[C@]3(C)C(=O)CC[C@@H]23)[C@@]2(C)C=CC(=O)C=C12` [HDDG-015] belongs 54%; to `C[C@]12C=CC(=O)C=C1[C@H](OCc1ccccc1)C[C@@H]1[C@@H]2CC[C@]2(C)C(=O)CC[C@@H]12` [HDDG-016], 52%.
Take `C[C@]12CCC(=O)C=C1C(Br)C[C@@H]1[C@@H]2CC[C@]2(C)C(=O)CC[C@@H]12` (stereo partly drawn) [HDDG-017]: the “% Inhibition” value under setting [2] is 64%.
On the same count and under the same terms, the value for `C[C@]12CCC(=O)CC1=CC[C@@H]1[C@@H]2CC[C@]2(C)C(=O)CC[C@@H]12` [HDDG-018] was 41%.
On to `C[C@]12C=CC(O)=C(OC(=O)Cc3ccccc3)C1=CC[C@@H]1[C@@H]2CC[C@]2(C)C(=O)CC[C@@H]12` [HDDG-019], for which the “% Inhibition” value runs as follows: under setting [3], 29%; under setting [2], 54%.
On to `COC1=C(O)CC[C@@]2(C)C1=CC[C@@H]1[C@@H]2CC[C@]2(C)C(=O)CC[C@@H]12` [HDDG-020], for which the “% Inhibition” value is, setting by setting: under setting [3], 21%; under setting [1], 72%; under setting [2], 61%.
Regarding `CO[C@@H]1C[C@@H]2[C@H](CC[C@]3(C)C(=O)CC[C@@H]23)[C@@]2(C)CCC(=O)C=C12` [HDDG-021], the “% Inhibition” value is, setting by setting: under setting [3], 0%; under setting [1], 70%; under setting [2], 63%.
On to `CCC(=O)OC1=C(O)C=CC2(C)C1=CCC1C2CCC2(C)C(=O)CCC12` (stereo not drawn) [HDDG-022], for which the “% Inhibition” value is, setting by setting: under setting [3], 51%; under setting [1], 86%; under setting [2], 86%.
As for `C[C@]12CCC(=O)C(=[N+]=[N-])C1=CC[C@@H]1[C@@H]2CC[C@]2(C)C(=O)CC[C@@H]12` [HDDG-023], the “% Inhibition” value is recorded as 24% under setting [3], 30% under setting [1] and 33% under setting [2].
As to `CC(C)(C)O[C@@H]1C[C@@H]2[C@H](CC[C@]3(C)C(=O)CC[C@@H]23)[C@@]2(C)CCC(=O)C=C12` [HDDG-024], the “% Inhibition” value under setting [3] is on record as 16%, the “% Inhibition” value under setting [1] came out at 78% and the “% Inhibition” value under setting [2] is 76%.
As for `CCO[C@@H]1C[C@@H]2[C@H](CC[C@]3(C)C(=O)CC[C@@H]23)[C@@]2(C)C=CC(=O)C=C12` [HDDG-025], the “% Inhibition” value under setting [1] is on record as 19% and the “% Inhibition” value under setting [2] was 39%.
`C#CCO[C@@H]1C[C@@H]2[C@H](CC[C@]3(C)C(=O)CC[C@@H]23)[C@@]2(C)C=CC(=O)C=C12` [HDDG-026]: the “% Inhibition” value runs as follows: under setting [3], 10%; under setting [1], 35%; under setting [2], 80%.
In the case of `C[C@]12C=CC(=O)C=C1[C@H](OCC#Cc1ccccc1)C[C@@H]1[C@@H]2CC[C@]2(C)C(=O)CC[C@@H]12` [HDDG-027], the “% Inhibition” value stood at 27% under setting [3], 66% under setting [1] and 94% under setting [2].
`C#CC(C)(C)O[C@@H]1C[C@@H]2[C@H](CC[C@]3(C)C(=O)CC[C@@H]23)[C@@]2(C)C=CC(=O)C=C12` [HDDG-028]: the “% Inhibition” value turned out to be 18% under setting [3], 44% under setting [1] and 35% under setting [2].
`CC#CCO[C@@H]1C[C@@H]2[C@H](CC[C@]3(C)C(=O)CC[C@@H]23)[C@@]2(C)C=CC(=O)C=C12` [HDDG-029]: the “% Inhibition” value under setting [3] was 34%, the “% Inhibition” value under setting [1] stood at 63% and the “% Inhibition” value under setting [2] came out at 95%.
`CCC(=O)O[C@@H]1C[C@@H]2[C@H](CC[C@]3(C)C(=O)CC[C@@H]23)[C@@]2(C)C=CC(=O)C=C12` [HDDG-030]: the “% Inhibition” value under setting [3] was determined as 3%, the “% Inhibition” value under setting [1] is 0% and the “% Inhibition” value under setting [2] is listed as 29%.
With `C[C@]12C=CC(=O)C=C1[C@H](OC(=O)Cc1ccccc1)C[C@@H]1[C@@H]2CC[C@]2(C)C(=O)CC[C@@H]12` [HDDG-031], the “% Inhibition” value reads like this: under setting [3], 0%; under setting [1], 51%; under setting [2], 47%.
As to `C#CCOC1=C(O)C=C[C@@]2(C)C1=CC[C@@H]1[C@@H]2CC[C@]2(C)C(=O)CC[C@@H]12` [HDDG-032], the “% Inhibition” value is, setting by setting: under setting [3], 32%; under setting [1], 98%; under setting [2], 93%.
With `CC(=O)O[C@@H]1C[C@@H]2[C@H](CC[C@]3(C)C(=O)CC[C@@H]23)[C@@]2(C)C=CC(=O)C=C12` [HDDG-033], the “% Inhibition” value runs as follows: under setting [3], 48%; under setting [1], 96%; under setting [2], 100%.
The corresponding values for `CCOC1=C(O)CC[C@@]2(C)C1=CC[C@@H]1[C@@H]2CC[C@]2(C)C(=O)CC[C@@H]12` [HDDG-034] are 14%, 96% and 88%.
Regarding `C[C@]12C=CC(O)=C(OCC#Cc3ccccc3)C1=CC[C@@H]1[C@@H]2CC[C@]2(C)C(=O)CC[C@@H]12` [HDDG-038], the “% Inhibition” value reads like this: under setting [3], 22%; under setting [1], 97%; under setting [2], 91%.
For the molecule `CC(=O)OC1=C(O)C=C[C@@]2(C)C1=CC[C@@H]1[C@@H]2CC[C@]2(C)C(=O)CC[C@@H]12` [HDDG-039], the “% Inhibition” value was found to be 33% under setting [3], 98% under setting [1] and 88% under setting [2].
As to `C[C@]12C=CC(=O)C=C1[C@@H](Br)C[C@@H]1[C@@H]2CC[C@]2(C)C(=O)CC[C@@H]12` [HDDG-040], the “% Inhibition” value is on record as 54% under setting [3], 94% under setting [1] and 98% under setting [2].
Turning to `C[C@]12CCC(=O)C=C1[C@H](OCc1ccccc1)C[C@@H]1[C@@H]2CC[C@]2(C)C(=O)CC[C@@H]12` [HDDG-041], the “% Inhibition” value came out at 34% under setting [3], 95% under setting [1] and 87% under setting [2].
Consider `CCC#CCO[C@@H]1C[C@@H]2[C@H](CC[C@]3(C)C(=O)CC[C@@H]23)[C@@]2(C)CCC(=O)C=C12` [HDDG-042], for which the “% Inhibition” value stood at 40% under setting [3], 95% under setting [1] and 99% under setting [2].
The corresponding values for `C[C@]12C=CC(O)=C(OCc3ccccc3)C1=CC[C@@H]1[C@@H]2CC[C@]2(C)C(=O)CC[C@@H]12` [HDDG-043] are 18%, 97% and 90%.
In the case of `CCCCO[C@@H]1C[C@@H]2[C@H](CC[C@]3(C)C(=O)CC[C@@H]23)[C@@]2(C)C=CC(=O)C=C12` [HDDG-044, (6R,8S,9S,10R,13S,14S)-6-butoxy-10,13-dimethyl-7,8,9,10,11,12,13,14,15,16-decahydro-3H-cyclopenta[α]phenanthrene-3,17(6H)-dione], the “% Inhibition” value under setting [3] was found to be 73%, the “% Inhibition” value under setting [1] is listed as 96% and the “% Inhibition” value under setting [2] came to 86%.
With `CCC#CCO[C@@H]1C[C@@H]2[C@H](CC[C@]3(C)C(=O)CC[C@@H]23)[C@@]2(C)C=CC(=O)C=C12` [HDDG-046, (6R,8S,9S,10R,13S,14S)-10,13-dimethyl-6-(pent-2-yn-1-yloxy)-7,8,9,10,11,12,13,14,15,16-decahydro-3H-cyclopenta[α]phenanthrene-3,17(6H)-dione], the “% Inhibition” value worked out at 89% under setting [3], 96% under setting [1] and 99% under setting [2].
With `CCCC#CCO[C@@H]1C[C@@H]2[C@H](CC[C@]3(C)C(=O)CC[C@@H]23)[C@@]2(C)C=CC(=O)C=C12` [HDDG-047], the “% Inhibition” value was 42% under setting [3], 95% under setting [1] and 99% under setting [2].
The like results for `CCCCC#CCO[C@@H]1C[C@@H]2[C@H](CC[C@]3(C)C(=O)CC[C@@H]23)[C@@]2(C)C=CC(=O)C=C12` [HDDG-048] were, in that order, 48%, 87% and 97%.
